The test system of the assay is hemoglobin-haptoglobin complex. Briefly: Stability of hemoglobin (as hemoglobin-haptoglobin complex) in samples preserved at 37° C. in preservation solution containing 1 unit/L haptoglobin, Hb measured by latex agglutination method (Examples 1 to 7). The note with it: arylboronic acid 15 mmol/L, 37° C. Details: species or system human. The method, then: Preservation solutions were prepared with the addition of 40 mmol/L HEPES (pH 6.8), 0.1% BSA, 0.1% NaN3, 1 unit/L haptoglobin, and 0 to 100 mmol/L phenylboronic acid. Samples obtained by adding hemoglobin-added fecal specimens to the preservation solutions so that the fecal concentration would be 0.5% were preserved at 37° C. for 0, 7, 14, and 21 days. The fecal specimens were added with hemoglobin having an amount such that the hemoglobin concentration in the samples would be about 300 μg/L. Instead of the fecal specimens to which hemoglobin was added, samples containing no fecal specimens, in which hemoglobin was added to the preservation solutions so that the hemoglobin concentration in the samples would be 300 μg/L, were similarly preserved. The hemoglobin (Hb) concentrations (μg/L) in the preserved samples were measured by the latex agglutination method.
The concentrations of hemoglobin were measured using “OC-Hemodia (registered trademark) Auto III ‘EIKEN’” (available from EIKEN CHEMICAL CO., LTD.) as a measurement reagent and “OC-sensor DIANA” (available from EIKEN CHEMICAL CO., LTD.) as a measurement device. The above measurement reagent contains latex particles immobilizing an anti-human hemoglobin rabbit polyclonal antibody.
From the measured concentrations of hemoglobin, the recovery ratios (%) were calculated with respect to the hemoglobin concentrations immediately after the fecal specimens were added to the preservation solutions (i.e., concentrations 0 days after the fecal specimens were added).
(§1) For comparative examples, preservation solutions to which no arylboronic acid was added were prepared, and testing was conducted in the same manner.
The concentration of phenylboronic acid in the preservation solutions of Example 1 was fixed to 15 mmol/L, preservation solutions to which a sugar (sorbitol, sucrose, trehalose, glucose, fructose, or mannitol) was further added at 50 mmol/L or 100 mmol/L or preservation solutions to which no sugar was added were prepared, and testing was conducted in the same manner as in Example 1. For comparative examples, preservation solutions to which the phenylboronic acid and sugar were not added were prepared, and testing was conducted in the same manner.
Preservation solutions in which sorbitol, sucrose, trehalose, glucose, fructose, or mannitol was added at 100 mmol/L to the preservation solutions of Example 1 containing no phenylboronic acid were prepared, and testing was conducted in the same manner as in Example 1. For comparison, the same testing was conducted without adding these sugars.
The concentration of phenylboronic acid in the preservation solutions of Example 1 was fixed to 15 mmol/L, preservation solutions to which sorbitol was added at 10 to 500 mmol/L or sucrose was added at 10 to 250 mmol/L or preservation solutions to which no sugar was added were prepared, and testing was conducted in the same manner as in Example 1. For comparative examples, preservation solutions to which the phenylboronic acid and sugar were not added were prepared, and testing was conducted in the same manner.
as §1

`O=C(O)c1ccccc1B(O)O` [2C-PBA, 2-carboxyphenylboronic acid]: the Hb concentration is, setting by setting: (Feces 1, 0 days) 315 µg/L; (Feces 1, 7 days) 196 µg/L; (Feces 1, 14 days) 150 µg/L; (Feces 2, 0 days) 311 µg/L; (Feces 2, 7 days) 157 µg/L; (Feces 2, 14 days) 103 µg/L. Also, the Hb concentration was found to be 300 µg/L (Feces 3, 0 days); 124 µg/L (Feces 3, 7 days); 76 µg/L (Feces 3, 14 days); 292 µg/L (No feces, 0 days); 272 µg/L (No feces, 7 days); 264 µg/L (No feces, 14 days). The “Recovery ratio with respect to Hb after 0 days” value (from here on “Recovery ratio”) came out at 100% (Feces 1, 0 days); 62% (Feces 1, 7 days); 48% (Feces 1, 14 days); 100% (Feces 2, 0 days); 50% (Feces 2, 7 days); 33% (Feces 2, 14 days). Also, the “Recovery ratio” value (Feces 3, 0 days) came to 100%; the “Recovery ratio” value (Feces 3, 7 days) is 41%; the “Recovery ratio” value (Feces 3, 14 days) amounted to 25%; the “Recovery ratio” value (No feces, 0 days) is 100%; the “Recovery ratio” value (No feces, 7 days) is 93%; the “Recovery ratio” value (No feces, 14 days) is given as 90%.
`O=C(O)c1ccc(B(O)O)cc1` [4C-PBA, 4-carboxyphenylboronic acid] showed a Hb concentration (Feces 1, 0 days) of 312 µg/L; a Hb concentration (Feces 1, 7 days) of 252 µg/L; a Hb concentration (Feces 1, 14 days) of 234 µg/L; a Hb concentration (Feces 2, 0 days) of 315 µg/L; a Hb concentration (Feces 2, 7 days) of 239 µg/L; a Hb concentration (Feces 2, 14 days) of 227 µg/L. The Hb concentration (Feces 3, 0 days) was determined as 300 µg/L; the Hb concentration (Feces 3, 7 days) is 219 µg/L; the Hb concentration (Feces 3, 14 days) came to 194 µg/L; the Hb concentration (No feces, 0 days) came out at 279 µg/L; the Hb concentration (No feces, 7 days) came to 275 µg/L; the Hb concentration (No feces, 14 days) stood at 271 µg/L. Moreover, the “Recovery ratio” value is on record as 100% (Feces 1, 0 days); 81% (Feces 1, 7 days); 75% (Feces 1, 14 days); 100% (Feces 2, 0 days); 76% (Feces 2, 7 days); 72% (Feces 2, 14 days). The “Recovery ratio” value is 100% (Feces 3, 0 days); 73% (Feces 3, 7 days); 65% (Feces 3, 14 days); 100% (No feces, 0 days); 98% (No feces, 7 days); 97% (No feces, 14 days).

The values are drawn from patent publication US12215140B2, “Method of stabilizing protein contained in specimen and solution for stabilizing protein contained in specimen” (EIKEN KAGAKU KABUSHIKI KAISHA, priority 2018, dated 2025).
